The text below walks through data of patent US8299048B2, “Hexahydrocyclopentyl[f]indazole sulfonamides and derivatives thereof as selective glucocorticoid receptor modulators” (Merck Sharp & Dohme Corp., priority 2008, dated 2012).

Molecules are shown by their SMILES.

Test [1] has as its target T1, human GR (Homo sapiens, UniProt P04150).
T1 sequence (P04150 1-777): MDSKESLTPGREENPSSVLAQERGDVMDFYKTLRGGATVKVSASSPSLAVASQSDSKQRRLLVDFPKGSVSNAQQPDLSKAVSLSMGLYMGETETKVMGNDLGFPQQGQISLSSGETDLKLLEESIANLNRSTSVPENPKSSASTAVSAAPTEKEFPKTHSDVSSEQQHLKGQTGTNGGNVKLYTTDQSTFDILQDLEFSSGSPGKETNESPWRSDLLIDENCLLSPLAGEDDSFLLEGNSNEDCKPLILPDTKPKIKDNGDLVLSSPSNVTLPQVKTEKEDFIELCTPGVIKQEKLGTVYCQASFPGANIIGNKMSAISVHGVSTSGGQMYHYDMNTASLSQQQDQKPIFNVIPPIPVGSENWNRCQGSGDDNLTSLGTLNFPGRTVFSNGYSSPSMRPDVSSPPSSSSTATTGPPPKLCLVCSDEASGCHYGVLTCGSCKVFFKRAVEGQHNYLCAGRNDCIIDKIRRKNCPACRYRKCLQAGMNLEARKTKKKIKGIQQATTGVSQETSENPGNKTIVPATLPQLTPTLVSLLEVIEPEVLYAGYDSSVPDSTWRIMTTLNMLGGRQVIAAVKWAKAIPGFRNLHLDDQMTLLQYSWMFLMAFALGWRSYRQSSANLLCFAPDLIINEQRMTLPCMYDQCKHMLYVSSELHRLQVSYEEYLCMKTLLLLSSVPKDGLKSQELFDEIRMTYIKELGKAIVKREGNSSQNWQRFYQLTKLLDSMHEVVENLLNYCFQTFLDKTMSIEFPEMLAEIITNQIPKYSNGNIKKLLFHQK
Put plainly: Transrepression Assay (GITAR), TNFα-β-lactamase reporter in U937 cells. The class given is cell-based. Also noted: U937 cells contain an endogenous glucocorticoid receptor (GR); endogenous in cells; host or cells: U937 cells stably transfected with the TNF-alpha promoter/beta-lactamase reporter. The note with it: for GITAR > GRAMM % SEP: GITAR Emax minus GRAMMER Emax; for EC50: U937 cells, inflection point, read-out: Transrepression U937 Cells GITAR IP. The source says: This assay assesses the ability of test compounds to control transcription from the TNFα-β-lactamase reporter gene in U937 cells, a human myelomonocytic leukemia cell line that naturally expresses the human GR. The assay measures compound dependent-repression of the TNFa promoter linked to a reporter gene.
The human U937 cells that had been stablely transfected with the TNF-α promoter driving β-lactamase are used for this assay. U937 cells contain an endogenous glucocorticoid receptor (GR). Cells are maintained in RPMI 1640 Growth medium (Gibco Cat#11875-093) containing 25 mM HEPES, 10% FBS, 2 mM L-Glutamine, 1 mM Sodium pyruvate, 25 μg/ml Gentamicin (Gibco Cat#15710-064), 1:1000 2-Mercaptoethanol (Gibco Cat#21985-023) and 0.8 mg/ml G418 (Gibco Cat#10131-027). The density of the cells in the flask needs to be about 1×10^6−3×10^6/ml at the time of harvest. Usually, the cells are split to 1.2˜1.4×10^5/ml (1:10) 3 days prior to the assay. 50,000 cells/well are plated in 96 well black-walled plates the day of assay. Test compounds are added 10 μL/well, and cells are incubated at 37° C. for 30˜45 min. For assaying compounds, first dilute 1:10 in DMSO to make 1 mM, then further dilute 1:100 in medium to make 10× stock prior to adding to the cells. Add 50 ng/mlPMA (Sigma, cat# P8139) 10 μL/well to a final concentration 5 ng/ml, and 1 μg/ml LPS (Sigma, cat# L4130) 10 μL/well to a final concentration 100 ng/ml. Incubate cells at 37° C. overnight for ˜18 hr. PMA is stored frozen as 100 μg/ml stock in DMSO. Dilute 1:10 in DMSO for a working stock of 10 μg/ml and store at −20 C. For assaying, dilute the 10 μg/ml working stock 1:200 in medium to make a 10× solution (50 ng/ml). Store frozen LPS at 1 mg/ml in PBS, dilute 1:1000 in medium to make 10× (1 μg/ml) for the assay. Add 6× loading buffer (CCF2-AM) 20 μL/well, and incubate at room temperature for 70˜90 min. […] The activity repressed by 100 nM dexamethasone alone is set as 100% activity.

In test [2] the target is T1, human GR. In words: Trans-Activation Modulation of Glucocorticoid Receptor (GRAMMER), MMTV-LUC reporter, agonist mode. It counts as cell-based. Also noted: endogenous in cells. As to conditions: for Emax: A549, A549 cells, maximum activity, read-out: Transactivation A549 Cells GRAMMER Emax; for EC50: A549 cells, inflection point, read-out: Transactivation A549 Cells GRAMMER IP. The source says: This assay assesses the ability of test compounds to control transcription from the MMTV-LUC reporter gene in lung adenocarcinoma A549 cells or MDA-MB-453 cells, a human breast cancer cell line that naturally expresses the human GR. The assay measures induction of a modified MMTV LTR/promoter linked to the LUC reporter gene.
The routine transient assay consists of plating 7,000-25,000 cells/well of a white, clear-bottom 96-well plate. Alternatively, 384-well plates can be used at a cell concentration of 10,000/well. The media that the cells are plated in is “exponential growth medium” which consists of phenol red-free RPMI1640 containing 10% FBS, 4 mM L-glutamine, 20 mM HEPES, 10 ug/mL human insulin, and 20 ug/mL gentamicin. Incubator conditions are 37° C. and 5% CO2. The transfection is done in batch mode. The cells are trypsinized and counted to the right cell number in the proper amount of fresh media. It is then gently mixed with the FuGene6/DNA mix and plated onto the 96 or 384-well plate, all the wells receive 100 uL or 40 uL, respectively, of medium+lipid/DNA complex then incubated 37° C. overnight. The transfection cocktail consists of serum-free OptiMEM, FuGene6 reagent and DNA. The manufacturer's (Roche Biochemical) protocol for cocktail setup is as follows: The lipid to DNA ratio is approximately 2.5:1 and the incubation time is 20 min at room temperature. Sixteen to 24 hours after transfection, the cells are treated with dexamethasone to a final concentration of 10 nM as well as the compound of interest, such that final DMSO (vehicle) concentration is equal to or less than 1%. Each plate also contains samples that are treated with 10 nM dexamethasone alone, which is used as the 100% activity control. The cells are exposed to the compounds for 24 hours. After 24 hours, the cells are lysed by a Promega cell culture lysis buffer for approximately 30 min and then the luciferase activity in the extracts is assayed in the 96-well format luminometer. In 384-well format, Steady-Glo (Promega) or Steady-Lite (PerkinElmer) can be used by adding an equal volume of reagent to the media present in each well. Activity induced by 10 nM dexamethasone alone is set at 100% activity. Antagonist activity is calculated by determining the decrease in dexamethasone-induced activity in response to compound treatment relative to samples that were treated with dexamethasone alone. […] This transactivation assay can be performed in an agonist and antagonist mode to identify these different activities.

[3] abbreviates: U-937, U937 cells, maximum activity, read-out: Transrepression U937 Cells GITAR Emax.
The mark [4] stands for this setting: U-937, activity repressed by 100 nM dexamethasone alone set as 100%, read-out: maximal activity in the transrepression (GITAR) assay.

As for `COCCN(C[C@H]1CCC2=Cc3c(cnn3-c3ccc(F)cc3)C[C@@]21C)S(=O)(=O)CC(F)(F)F` [Example 97, 2,2,2-trifluoro-N-{[(4αR,5S)-1-(4-fluorophenyl)-4α-methyl-1,4,4α,5,6,7-hexahydrocyclopenta[f]indazol-5-yl]methyl}-N-(2-methoxyethyl)ethanesulfonamide], the “GITAR > GRAMM % SEP” value in test [1] turned out to be 2.2%. Also, the EC50 in test [1] was determined as 49 nM; in test [2], 48.9 nM. The Emax was 85.9% in test [1] (setting [3]), more than 5% in test [1] (setting [4]) and 83.8% in test [2].
For the molecule `Cn1cc(S(=O)(=O)N(CCc2ccccc2F)C[C@H]2CCC3=Cc4c(cnn4-c4ccc(F)cc4)C[C@@]32C)c(C(F)(F)F)n1` [Example 98, N-[2-(2-fluorophenyl)ethyl]-N-{[(4αR,5S)-1-(4-fluorophenyl)-4α-methyl-1,4,4α,5,6,7-hexahydrocyclopenta[f]indazol-5-yl]methyl}-1-methyl-3-(trifluoromethyl)-1H-pyrazole-4-sulfonamide], in test [1], the “GITAR > GRAMM % SEP” value was determined as 13.2%. Further, the EC50 in test [1] amounted to 64.3 nM; in test [2] it was 239 nM. Also, the Emax in test [1] (setting [3]) is 89.9%; in test [1] (setting [4]), more than 5%; in test [2], 76.7%.
In the case of `C[C@]12Cc3cnn(-c4ccc(F)cc4)c3C=C1CC[C@@H]2CN(CCc1ccccc1F)S(=O)(=O)c1ccccc1C(F)(F)F` [Example 99, N-[2-(2-fluorophenyl)ethyl]-N-{[(4αR,5S)-1-(4-fluorophenyl)-4α-methyl-1,4,4α,5,6,7-hexahydrocyclopenta[f]indazol-5-yl]methyl}-2-(trifluoromethyl)benzenesulfonamide], the “GITAR > GRAMM % SEP” value in test [1] turned out to be 24.6%. The EC50 in test [1] was 64.4 nM; in test [2], 236 nM. In addition, the Emax is 86.8% in test [1] (setting [3]), more than 5% in test [1] (setting [4]) and 62.1% in test [2].
Turning to `C[C@]12Cc3cnn(-c4ccc(F)cc4)c3C=C1CC[C@@H]2CN(CCc1ccccc1F)S(=O)(=O)c1ccccc1Cl` [Example 100, 2-chloro-N-[2-(2-fluorophenyl)ethyl]-N-{[(4αR,5S)-1-(4-fluorophenyl)-4α-methyl-1,4,4α,5,6,7-hexahydrocyclopenta[f]indazol-5-yl]methyl}benzenesulfonamide], the “GITAR > GRAMM % SEP” value in test [1] was 14.2%. In addition, the EC50 in test [1] was 192 nM; in test [2], 397 nM. The Emax was 79.1% in test [1] (setting [3]), more than 5% in test [1] (setting [4]) and 64.9% in test [2].
`CCCCS(=O)(=O)N(CCc1ccccc1F)C[C@H]1CCC2=Cc3c(cnn3-c3ccc(F)cc3)C[C@@]21C` [Example 102, N-[2-(2-fluorophenyl)ethyl]-N-{[(4αR,5S)-1-(4-fluorophenyl)-4α-methyl-1,4,4α,5,6,7-hexahydrocyclopenta[f]indazol-5-yl]methyl}butane-1-sulfonamide]: the “GITAR > GRAMM % SEP” value in test [1] came to 8.2%. Further, the EC50 amounted to 95.1 nM in test [1] and 203 nM in test [2]. For the same molecule, the values for the Emax in test [1] (setting [3]), in test [1] (setting [4]) and in test [2] were 86.5%, more than 5% and 78.3%, respectively.
As for `CC(C)CS(=O)(=O)N(CCc1ccccc1F)C[C@H]1CCC2=Cc3c(cnn3-c3ccc(F)cc3)C[C@@]21C` [Example 103, N-[2-(2-fluorophenyl)ethyl]-N-{[(4αR,5S)-1-(4-fluorophenyl)-4α-methyl-1,4,4α,5,6,7-hexahydrocyclopenta[f]indazol-5-yl]methyl}-2-methylpropane-1-sulfonamide], the “GITAR > GRAMM % SEP” value in test [1] worked out at 7.7%. In addition, the EC50 in test [1] was 177 nM; in test [2] it was 367 nM. In addition, the Emax in test [1] (setting [3]) was 76.5%; in test [1] (setting [4]), more than 5%; in test [2] it was 68.8%.
As for `CCCCCCCCS(=O)(=O)N(CCc1ccccc1F)C[C@H]1CCC2=Cc3c(cnn3-c3ccc(F)cc3)C[C@@]21C` [Example 104, N-[2-(2-fluorophenyl)ethyl]-N-{[(4αR,5S)-1-(4-fluorophenyl)-4α-methyl-1,4,4α,5,6,7-hexahydrocyclopenta[f]indazol-5-yl]methyl}octane-1-sulfonamide], the “GITAR > GRAMM % SEP” value in test [1] stood at 1.0%. The values for the EC50 in test [1] and in test [2] were 153 nM and 258 nM, respectively. In addition, the Emax in test [1] (setting [3]) is 10.2%; in test [1] (setting [4]), more than 5%; in test [2] it was 9.2%.
Take `C[C@]12Cc3cnn(-c4ccc(F)cc4)c3C=C1CC[C@@H]2CN(CCc1ccccc1F)S(=O)(=O)Cc1ccc(Cl)cc1Cl` [Example 105, 1-(2,4-dichlorophenyl)-N-[2-(2-fluorophenyl)ethyl]-N-{[(4αR,5S)-1-(4-fluorophenyl)-4α-methyl-1,4,4α,5,6,7-hexahydrocyclopenta[f]indazol-5-yl]methyl}methanesulfonamide]: the “GITAR > GRAMM % SEP” value in test [1] amounted to 3.3%. In addition, the values for the EC50 in test [1] and in test [2] were 109 nM and 193 nM, respectively. Also, the figures for the Emax in test [1] (setting [3]), in test [1] (setting [4]) and in test [2] were 88.8%, more than 5% and 85.5%, respectively.
